pIC50: −log10 of the molar value. ≈ marks a conversion by molar mass, not a printed value. Where “and” joins values, the source holds several entries; their conditions need not be identical. Equal entries are not always repeated. Where two headings read alike, the source gives them in different places.
How the values were obtained:
H37Rv-Mtb = test: MIC against replicating H37Rv-Mtb in liquid media; type: cell-based, Mycobacterium tuberculosis; conditions: for MIC: replicating, 5 days, OD590
[1] = tested on: M. tuberculosis strain H37Rv-LUX; test: microbe, parasite or virus in culture; type: cell-based; conditions: Mycobacterium tuberculosis, read-out: LORA MIC
VERO cell line = test: Eukaryotic cytotoxicity (CellTiter-Glo); type: cell-based, African green monkey; conditions: Chlorocebus sabaeus, 48 h, 2-day incubation, read-out: VERO Toxicity IC50
Description: Cytotoxicity was tested against the African green monkey adult kidney cell line (VERO, ATCC CRL-1586) as described. Compounds were tested as 10-point, 3-fold serial dilutions in DMSO (final assay concentration of 1% DMSO) and viability was measured using CellTiter-Glo (Promega). Inhibition curves were fitted using the Levenberg–Marquardt algorithm. IC50 was defined as the concentration required to reduce cell viability by 50% after 2-day incubation.

[2] = tested on: M. tuberculosis GC1237 (Mtb-GFP) in Raw 264.7 macrophages; test: Intracellular mycobacterial replication assay in macrophages; type: cell-based; conditions: Mycobacterium tuberculosis, 120 h, 5 days, read-out: MIC, intracellular M. tuberculosis growth in macrophages
physchem = conditions: pH 6.8, aqueous buffer, kinetic from dmso stock
Description: The relative solubility of compounds was determined in microbiological medium using turbidity as a measure [27]. A serial dilution of compounds was prepared in DMSO and then transferred to microbiological medium at pH 6.8.

[3] = cited from earlier work
replicating Mtb = conditions: against three family strains; cited from earlier work
[4] = tested on: M. tuberculosis GC1237 (Mtb-GFP) in Raw 264.7 macrophages; conditions: cited from earlier work
[5] = cited from earlier work; remark: listed apart in the source
[6] = tested on: murine Raw 264.7 macrophages; conditions: mouse
[7] = in vivo; cited from earlier work
M. tuberculosis Erdman = test: Chronic Balb/c model of TB infection; type: in vivo, Balb/c mice; conditions: 25 mg/kg
[8] = Mycobacterium tuberculosis, H37RV, 120 h

Work on `CCc1nc2sc(C)cn2c1C(=O)NCc1ccc2c(c1)CCO2` [ND-11503, N-((2,3-Dihydrobenzofuran-5-yl)methyl)-6-ethyl-2-methylimidazo[2,1-b]thiazole-5-carboxamide] yielded an MIC (H37Rv-Mtb; [8]) of 0.25 to 0.54 µM (≈ 0.0854 to 0.184 µg/mL), an MIC (H37Rv-Mtb) of 0.25 µM (≈ 0.0854 µg/mL) and an MIC [1] of 2.7 µM (≈ 0.922 µg/mL). For the same molecule, the pIC50 (VERO cell line) was < 4.30, the MIC [2] was 1.25 to 2.5 µM (≈ 0.427 to 0.854 µg/mL) and the solubility (physchem) was ≥ 200 µM.

In the case of `Cc1cn2c(C(=O)NCc3ccc(Oc4cccc(C(F)(F)F)c4)nc3)c(C)nc2s1` [ND-12025, 2,6-Dimethyl-N-((6-(3-(trifluoromethyl)phenoxy)yridine-3-yl)methyl)imidazo[2,1-b]thiazole-5-carboxamide], the MIC (H37Rv-Mtb; [8]) was 0.33 µM (≈ 0.147 µg/mL), the pIC50 (VERO cell line) was < 4.30 and the solubility (physchem) was 100 µM (≈ 44.6 µg/mL).

For `O=C(/C=C/c1cccs1)N1CCN(Cc2ccc3c(c2)OCO3)CC1` [AX-35], the MIC [3] is given as 0.14 μM and 0.05 μg/mL.

In the case of `Cc1c(OCC(F)(F)F)ccnc1CSc1nc2ccccc2[nH]1` [LPZS], the IC90 (replicating Mtb) is given as 1.1 to 1.7 µM.

For `C[C@H]1COC2(CCN(c3nc(=O)c4cc(C(F)(F)F)cc([N+](=O)[O-])c4s3)CC2)O1` [BTZ043, reference compound], the MIC (H37Rv-Mtb; [8]) was 0.002 µM (≈ 0.000863 µg/mL), the pIC50 (VERO cell line) was < 4.30 and the MIC [2] was 0.0078 µM (≈ 0.00336 µg/mL). The “MIC, intracellular, previous reports” value [4] was < 0.098 µM.

For `CCc1nc2sc(C)cn2c1C(=O)NCc1ccc(Oc2cccc(C(F)(F)F)c2)nc1` [ND-12024, 6-Ethyl-2-methyl-N-((6-(3-(trifluoromethyl)phenoxy)yridine-3-yl)methyl)imidazo[2,1-b]thiazole-5-carboxamide], the MIC (H37Rv-Mtb; [8]) was 0.21 µM (≈ 0.0967 µg/mL), the pIC50 (VERO cell line) was < 4.30 and the solubility (physchem) was 50 µM (≈ 23 µg/mL).

In the case of `Cc1cn2c(C(=O)NCc3ccc(N4CCS(=O)(=O)CC4)c(F)c3)c(C)nc2s1` [ND-11903, N-(4-(1,1-Dioxidothiomorpholino)-3-fluorobenzyl)-2,6-dimethylimidazo[2,1-b]thiazole-5-carboxamide], the “Fold less active than the most potent lipophilic compounds (ND-11543, ND-11564)” value (H37Rv-Mtb; MIC H37Rv-Mtb comparison) was > 100 fold, the MIC (H37Rv-Mtb; [8]) was 3.7 µM (≈ 1.62 µg/mL) and the MIC [1] was 200 µM (≈ 87.3 µg/mL). For the same molecule, the pIC50 (VERO cell line) was < 4.30 and the solubility (physchem) was > 200 µM.

For `NC(=O)c1sc(N2CCOCC2)cc1OCCc1ccc(OC(F)(F)F)cc1` [Compound 6], the MIC [5] is given as 0.2 µM (≈ 0.0833 µg/mL).

With `Cc1cn2c(C(=O)NCc3ccc(Oc4cccc(C(F)(F)F)c4)cc3)c(C)nc2s1` [ND-11564, 2,6-Dimethyl-N-(4-(3-(trifluoromethyl)phenoxy)benzyl)imidazo[2,1-b]thiazole-5-carboxamide] the MIC (H37Rv-Mtb; [8]) was 0.16 µM (≈ 0.0713 µg/mL), the MIC (H37Rv-Mtb) was 0.16 µM (≈ 0.0713 µg/mL) and the MIC [1] was 9.68 µM (≈ 4.31 µg/mL). The pIC50 (VERO cell line) was < 4.30, the MIC [2] was 0.25 µM (≈ 0.111 µg/mL) and the “Macrophage toxicity concentration relative to MIC” value [6] was 4 and 8-fold higher than their MIC. For the same molecule, the solubility (physchem) was 100 µM (≈ 44.5 µg/mL).

With `CCc1nc2ccc(Cl)cn2c1C(=O)NCc1ccc(N2CCC(c3ccc(OC(F)(F)F)cc3)CC2)cc1` [Q203] the MIC (H37Rv-Mtb; [8]) was 0.005 µM (≈ 0.00279 µg/mL), the MIC [1] was 1.3 µM (≈ 0.724 µg/mL) and the pIC50 (VERO cell line) was < 4.30. The MIC [2] was 0.0078 µM (≈ 0.00434 µg/mL), the “MIC, intracellular, previous reports” value [4] was < 0.098 µM and the solubility (physchem) was 100 µM (≈ 55.7 µg/mL). For the same molecule, the “AUC 0–24” value [7] was 44,100 ng·hr/mL.

In the case of `Cc1cn2c(C(=O)NCc3ccc4c(c3)CCO4)c(C)nc2s1` [ND-11459, N-((2,3-Dihydrobenzofuran-5-yl)methyl)-2,6-dimethylimidazo[2,1-b]thiazole-5-carboxamide], the MIC [1] was 12.4 µM (≈ 4.06 µg/mL), the pIC50 (VERO cell line) was < 4.30 and the MIC [2] was 1.25 to 2.5 µM (≈ 0.409 to 0.819 µg/mL). For the same molecule, the “Macrophage toxicity concentration relative to MIC” value [6] was 4 and 8-fold higher than their MIC and the solubility (physchem) was ≥ 200 µM.

In the case of `NNC(=O)c1ccncc1` [INH, Isoniazid], the “Log reduction vs Control (Lung)” value (M. tuberculosis Erdman; 4 weeks) was 1.73 log10 CFU, the “Log reduction vs Control (Spleen)” value (M. tuberculosis Erdman; 4 weeks) was 2.87 log10 CFU and the “Lung Log10 CFU ±SEM” value (M. tuberculosis Erdman; ERDMAN, 672 h) was 4.06 ± 0.11 Log10 CFU. The “Spleen Log10 CFU ±SEM” value (M. tuberculosis Erdman; ERDMAN, 672 h) was 2.13 ± 0.12 Log10 CFU.

For `Cc1cn2c(C(=O)NCc3ccc(N4CCS(=O)(=O)CC4)cc3)c(C)nc2s1` [ND-12015, N-(4-(1,1-Dioxidothiomorpholino)benzyl)-2,6-dimethylimidazo[2,1-b]thiazole-5-carboxamide], the “Fold less active than the most potent lipophilic compounds (ND-11543, ND-11564)” value (H37Rv-Mtb; MIC H37Rv-Mtb comparison) was > 100 fold, the MIC (H37Rv-Mtb; [8]) was 13 µM (≈ 5.44 µg/mL) and the pIC50 (VERO cell line) was < 4.30. It also gave a solubility (physchem) of 200 µM (≈ 83.7 µg/mL).

With `Cc1cn2c(C(=O)Nc3ccc(Oc4cccc(C(F)(F)F)c4)cc3)c(C)nc2s1` [ND-11566, 2,6-Dimethyl-N-(4-(3-(trifluoromethyl)phenoxy)phenyl)imidazo[2,1-b]thiazole-5-carboxamide] the “Fold difference in potency, anilide vs benzylic amide ND-11564” value (H37Rv-Mtb; MIC H37Rv-Mtb comparison) was > 50 fold, the MIC (H37Rv-Mtb; [8]) was 9.1 µM (≈ 3.93 µg/mL) and the MIC (H37Rv-Mtb) was 9.10 µM (≈ 3.93 µg/mL). For the same molecule, the MIC [1] was > 100 µM, the pIC50 (VERO cell line) was < 4.30 and the solubility (physchem) was 50 µM (≈ 21.6 µg/mL).

Reference: PMC6944458, “Intracellular and in vivo evaluation of imidazo[2,1-b]thiazole-5-carboxamide anti-tuberculosis compounds” (PLoS ONE, 2020)
